For 16 compounds, IC50 results are on record in US10131669B2, “Pyrazolopyrimidine compounds” (Pfizer Inc., priority 2014, dated 2018).

Structures can show the parent of a compound that is named as a salt.

What all share (type): biochemical
One experiment addresses T1, Human PDE4A3 (Homo sapiens, UniProt P27815).
T1 construct: His6 (N); FLAG (C); made in house; host or cells: insect cells (baculovirus, pFastBac)
The experiment in a line: PDE4A3 Scintillation Proximity Assay (SPA), inhibition of enzyme activity. As to conditions: geometric mean of 2-7 determinations unless otherwise indicated (b: ≥8 determinations; c: single determination), 1 μM cAMP, 30 min at 25° C., read-out: Human PDE4A FL. From the text:
(§1) Human PDE4A3 coding sequence (amino acids 2 to 825 from the sequence with accession number NP_001104779) was cloned into the baculovirus expression vector pFastBac (Invitrogen) engineered to include an N-terminal His6 affinity tag and a c-terminal FLAG affinity tag to aid in purification. The recombinant Bacmid was isolated and used to transfect insect cells to generate a viral stock. To generate cell paste for purification, insect cells were infected with the virus stock and cells were harvested 72 hours after infection. Insect cell paste was lysed and after centrifugation, the supernatant was batch bound to Ni-NTA agarose (GE Healthcare) and eluted with 250 mM imidazole. This eluate was diluted with FLAG buffer (50 mM Tris HCL pH 7.5, 100 mM NaCl, 5% Glycerol, 1 mM TCEP with protease inhibitors) and batch bound to ant-FLAG M2 agarose (Sigma) overnight at 4° C. The agarose was packed into a column, washed with buffer and eluted with buffer containing elute using 250 ug/ml Flag-peptide. Fractions were analyzed using SDS-PAGE Coomassie blue staining and pooled based on purity. Pooled fractions were chromatographed on a S200 120 ml column (GE Healthcare) in 50 mM Tris HCL pH 7.5, 150 mM NaCl, 10% Glycerol, 2 mM TCEP with protease inhibitors. PDE4A3 fractions were analyzed by SDS-PAGE Coomassie blue staining, pooled based on purity, dialyzed against 50 mM Tris HCL pH 7.5, 100 mM NaCl, 20% Glycerol, 2 mM TCEP, frozen and stored at −80° C.
(§2) The PDE4A3, PDE4B1, PDE4C1 and PDE4D3 assays use the Scintillation Proximity Assay (SPA) technology to measure the inhibition of human recombinant […], PDE4C1, and PDE4D3 enzyme activity by compounds in vitro. The PDE4A1, PDE4B3, PDE4C1, and PDE4D3 assays are run in parallel using identical parameters, except for the concentration of enzyme (80 pM PDE4A3, 40 pM PDE4B3, 40 pM PDE4C1 and 10 pM PDE4D). The assays are performed in a 384-well format with 50 uL assay buffer (50 mM TRIS pH7.5; 1.3 mM MgCl2; 0.01% Brij) containing enough PDE4A3, PDE4B1, PDE4C1, and PDE4D to convert ˜20% of substrate (1 μM cAMP consisting of 20 nM 3H-cAMP+[…] cold cAMP) and a range of inhibitors. Reactions are incubated for 30 min at 25° C. The addition of 20 uL of 8 mg/ml yitrium silicate SPA beads (Perkin Elmer) stops the reaction. The plates are sealed (TopSeal, Perkin Elmer) and the beads are allowed to settle for 8 hrs, after which they are read on the Trilux Microbeta overnight.
A general note: SPA uses beads or plates that emit light when radiolabelled molecules are held near them.

A further experiment deals with T2, Human PDE4C1 (Homo sapiens, UniProt Q08493).
T2 construct: His6 (N); FLAG (C); made in house; host or cells: insect cells (baculovirus, pFastBac)
T2 sequence (Q08493 2-712): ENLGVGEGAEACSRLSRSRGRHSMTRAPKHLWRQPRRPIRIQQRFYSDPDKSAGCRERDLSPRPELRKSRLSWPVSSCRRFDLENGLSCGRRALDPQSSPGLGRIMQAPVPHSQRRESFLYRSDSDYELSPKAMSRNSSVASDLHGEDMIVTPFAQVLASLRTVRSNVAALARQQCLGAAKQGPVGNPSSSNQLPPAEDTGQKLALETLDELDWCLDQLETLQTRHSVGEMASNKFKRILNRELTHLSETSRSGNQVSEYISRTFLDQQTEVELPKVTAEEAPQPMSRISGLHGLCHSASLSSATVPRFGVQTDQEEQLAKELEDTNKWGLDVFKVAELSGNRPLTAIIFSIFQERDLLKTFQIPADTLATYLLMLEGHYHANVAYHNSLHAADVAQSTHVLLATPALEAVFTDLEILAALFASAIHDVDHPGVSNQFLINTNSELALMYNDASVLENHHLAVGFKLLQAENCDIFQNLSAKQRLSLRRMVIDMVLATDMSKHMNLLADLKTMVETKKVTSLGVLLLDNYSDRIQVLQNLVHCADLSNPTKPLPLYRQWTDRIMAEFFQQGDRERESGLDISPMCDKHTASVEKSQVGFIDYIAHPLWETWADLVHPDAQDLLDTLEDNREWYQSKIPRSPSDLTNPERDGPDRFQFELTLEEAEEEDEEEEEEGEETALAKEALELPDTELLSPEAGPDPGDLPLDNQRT
The experiment in a line: PDE4C1 Scintillation Proximity Assay (SPA), inhibition of enzyme activity. The following applies: geometric mean of 2-7 determinations unless otherwise indicated (b: ≥8 determinations; c: single determination), 1 μM cAMP, 30 min at 25° C., read-out: Human PDE4C FL. As to the method: as §1, with “The” for “Human PDE4A3 coding sequence (amino acids 2 to 825 from the sequence with accession number NP_001104779) was cloned into the baculovirus expression vector pFastBac (Invitrogen) engineered to include an N-terminal His6 affinity tag and a c-terminal FLAG affinity tag to aid in purification. The”, “PDE4C1” for “PDE4A3”
as §2

The next experiment concerns the target T3, Human PDE4B1 (Homo sapiens, UniProt Q07343, S133E/S654A/S659A/S661A).
T3 construct: His6 (N); thrombin cleavage site (N); made in house; host or cells: insect cells (baculovirus, pFastBac)
The experiment in a line: PDE4B1 Scintillation Proximity Assay (SPA), inhibition of enzyme activity. The following applies: geometric mean of 2-7 determinations unless otherwise indicated (b: ≥8 determinations; c: single determination); 1 μM cAMP, 30 min at 25° C.; read-out: Human PDE4B FL; IC50. As to the method:
The recombinant Bacmid was isolated and used to transfect insect cells to generate a viral stock. To generate cell paste for purification, insect cells were infected with the virus stock and cells were harvested 72 hours after infection as described in Seeger, T. F. et al., Brain Research 985 (2003) 113-126. Insect cell paste was lysed and after centrifugation, the supernatant was chromatographed on Ni-NTA agarose (Qiagen) as described in Seeger, T. F. et al., Brain Research 985 (2003) 113-126. Ni-NTA agarose eluting fractions containing PDE4 were pooled, diluted with Q buffer A (20 mM Tris HCl pH 8, 5% glycerol, 1 mM TCEP) to reduce NaCl to ˜100 mM and loaded on a Source 15Q (GE Healthcare) column. After washing with Q buffer A/10% buffer B to baseline, PDE4D was eluted with a gradient from 10% to 60% of Buffer B (20 mM Tris HCl pH 8, 1 M NaCl, 5% glycerol, 1 mM TCEP). PDE4D fractions were analyzed by SDS-PAGE Coomassie blue staining, pooled based on purity, frozen and stored at −80° C.
as §2

A further experiment deals with T4, human PDE4D3 (Homo sapiens, UniProt Q08499).
T4 construct: His6 (C); made in house; host or cells: insect cells (baculovirus, pFastBac)
T4 sequence (Q08499 186-808): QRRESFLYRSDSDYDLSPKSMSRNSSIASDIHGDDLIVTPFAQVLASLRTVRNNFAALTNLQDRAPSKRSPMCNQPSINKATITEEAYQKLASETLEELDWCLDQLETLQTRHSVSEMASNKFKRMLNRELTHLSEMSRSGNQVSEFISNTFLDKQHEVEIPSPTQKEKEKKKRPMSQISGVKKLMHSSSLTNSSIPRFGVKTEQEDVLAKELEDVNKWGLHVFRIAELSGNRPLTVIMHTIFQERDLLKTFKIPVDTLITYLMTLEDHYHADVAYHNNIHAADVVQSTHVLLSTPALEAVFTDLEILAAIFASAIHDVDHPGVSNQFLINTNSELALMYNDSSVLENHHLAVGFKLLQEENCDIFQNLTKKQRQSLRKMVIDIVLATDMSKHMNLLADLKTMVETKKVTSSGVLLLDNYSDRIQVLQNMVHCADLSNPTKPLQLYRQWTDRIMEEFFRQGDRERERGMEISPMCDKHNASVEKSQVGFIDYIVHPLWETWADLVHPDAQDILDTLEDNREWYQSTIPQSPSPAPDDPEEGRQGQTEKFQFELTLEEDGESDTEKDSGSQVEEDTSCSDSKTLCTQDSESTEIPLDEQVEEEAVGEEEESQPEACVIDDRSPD
The experiment in a line: PDE4D3 Scintillation Proximity Assay (SPA), inhibition of enzyme activity. As to conditions: geometric mean of 2-7 determinations unless otherwise indicated (b: ≥8 determinations; c: single determination); 1 μM cAMP, 30 min at 25° C.; read-out: Human PDE4D FL; IC50. As to the method: The recombinant Bacmid was isolated and used to transfect insect cells to generate a viral stock. To generate cell paste for purification, insect cells were infected and cells were harvested 72 hours after infection. Insect cell paste was lysed and after centrifugation, the supernatant was chromatographed on Ni-NTA agarose (Qiagen) as described in Seeger, T. F. et al., Brain Research 985 (2003) 113-126. Ni-NTA agarose eluting fractions containing PDE4 were pooled, diluted with Q Buffer A (50 mM Tris HCl pH 8, 4% glycerol, 100 mM NaCl, 1 mM TCEP, Protease inhibitors EDTA-free (Roche)) to reduce NaCl to ˜200 mM, and loaded on a Q Sepharose (GE Healthcare) column. After washing with Q buffer A to baseline, PDE4D was eluted with a gradient from 10% to 60% of Buffer B (50 mM Tris HCl pH 8, 1 M NaCl, 4% glycerol, 1 mM TCEP). PDE4D fractions were analyzed by SDS-PAGE Coomassie blue staining, pooled based on purity, frozen and stored at −80° C.
as §2

T3 sequence (Q07343 122-736 S133E/S654A/S659A/S661A): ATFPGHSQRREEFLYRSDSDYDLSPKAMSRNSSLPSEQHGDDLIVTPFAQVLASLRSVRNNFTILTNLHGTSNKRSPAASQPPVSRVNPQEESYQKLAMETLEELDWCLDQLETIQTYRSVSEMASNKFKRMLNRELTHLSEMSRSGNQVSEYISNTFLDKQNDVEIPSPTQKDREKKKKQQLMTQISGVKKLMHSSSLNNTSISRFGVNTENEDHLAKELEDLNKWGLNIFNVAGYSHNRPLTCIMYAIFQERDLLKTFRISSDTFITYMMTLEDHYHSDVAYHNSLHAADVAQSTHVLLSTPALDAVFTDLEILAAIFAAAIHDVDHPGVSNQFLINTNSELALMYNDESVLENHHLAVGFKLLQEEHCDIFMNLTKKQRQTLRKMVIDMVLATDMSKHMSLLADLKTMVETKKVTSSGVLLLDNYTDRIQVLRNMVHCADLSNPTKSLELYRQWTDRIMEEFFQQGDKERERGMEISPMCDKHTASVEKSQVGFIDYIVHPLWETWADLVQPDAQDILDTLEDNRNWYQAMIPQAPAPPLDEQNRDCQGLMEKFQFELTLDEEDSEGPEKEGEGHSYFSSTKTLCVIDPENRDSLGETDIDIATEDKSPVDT
T1 sequence (P27815 2-825 isoform P27815-6): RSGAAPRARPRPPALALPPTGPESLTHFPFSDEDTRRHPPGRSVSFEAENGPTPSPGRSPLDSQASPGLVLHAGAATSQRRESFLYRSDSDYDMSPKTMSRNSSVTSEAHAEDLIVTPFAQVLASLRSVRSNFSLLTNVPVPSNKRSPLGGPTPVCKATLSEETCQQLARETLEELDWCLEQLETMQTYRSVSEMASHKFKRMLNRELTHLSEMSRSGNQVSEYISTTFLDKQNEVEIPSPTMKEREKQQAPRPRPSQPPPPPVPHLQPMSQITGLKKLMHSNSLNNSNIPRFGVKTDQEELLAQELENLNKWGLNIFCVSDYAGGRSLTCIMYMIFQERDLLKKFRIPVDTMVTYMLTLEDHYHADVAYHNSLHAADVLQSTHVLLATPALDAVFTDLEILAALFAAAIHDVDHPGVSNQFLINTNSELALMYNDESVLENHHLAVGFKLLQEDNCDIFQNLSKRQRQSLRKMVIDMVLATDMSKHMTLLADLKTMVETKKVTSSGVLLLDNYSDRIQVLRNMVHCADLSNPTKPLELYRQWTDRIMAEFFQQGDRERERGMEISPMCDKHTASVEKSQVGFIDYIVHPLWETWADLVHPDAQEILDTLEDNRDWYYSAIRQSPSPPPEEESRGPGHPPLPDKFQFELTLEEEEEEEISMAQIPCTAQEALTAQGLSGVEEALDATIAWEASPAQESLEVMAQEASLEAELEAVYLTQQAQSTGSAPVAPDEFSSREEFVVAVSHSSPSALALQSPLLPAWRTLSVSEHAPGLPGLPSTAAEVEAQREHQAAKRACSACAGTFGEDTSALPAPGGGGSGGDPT

`O=C(c1nn2cccnc2c1-c1ccc(Cl)cc1)N1CCC1` [Example 1, Azetidin-1-yl[3-(4-chlorophenyl)pyrazolo[1,5-a]pyrimidin-2-yl]methanone]: the IC50 on Human PDE4A3 was 17.9 nM; on Human PDE4C1, 84.2 nM; at Human PDE4B1, 52.7 nM; on human PDE4D3, over 9300 nM.

On to `CCCNC(=O)c1nn2cccnc2c1-c1ccc(Cl)cc1` [Example 2, 3-(4-Chlorophenyl)-N-propylpyrazolo[1,5-a]pyrimidine-2-carboxamide], for which the IC50 stood at 61.4 nM at Human PDE4A3, 60.6 nM at Human PDE4C1, 34.6 nM at Human PDE4B1 and 4150 nM on human PDE4D3.

As to `CCCC(=O)Nc1nn2cccnc2c1-c1ccc(Cl)c(F)c1` [Example 4, N-[3-(4-Chloro-3-fluorophenyl)pyrazolo[1,5-a]pyrimidin-2-yl]butanamide], the IC50 on Human PDE4A3 is 553 nM; on Human PDE4C1 it was 1540 nM; on Human PDE4B1 it was 894 nM; on human PDE4D3, over 30000 nM.

In the case of `O=C(NC1CC1)c1nn2cccnc2c1-c1ccc(Cl)c(F)c1` [Example 5, 3-(4-Chloro-3-fluorophenyl)-N-cyclopropylpyrazolo[1,5-a]pyrimidine-2-carboxamide], the IC50 on Human PDE4A3 came out at 3.29 nM; on Human PDE4C1, 18 nM; on Human PDE4B1, 5.87 nM; at human PDE4D3 it was 662 nM.

With `Cc1cc(Cl)ccc1-c1c(C(=O)NC2CC2)nn2cccnc12` [Example 6, 3-(4-Chloro-2-methylphenyl)-N-cyclopropylpyrazolo[1,5-a]pyrimidine-2-carboxamide], the IC50 on Human PDE4A3 was 28.7 nM; at Human PDE4C1 it was 66 nM; at Human PDE4B1 it was 55.2 nM; on human PDE4D3 it was over 10400 nM.

Turning to `O=C(NC1CC1)c1nn2cc(F)cnc2c1-c1ccc(Cl)cc1` [Example 7, 3-(4-Chlorophenyl)-N-cyclopropyl-6-fluoropyrazolo[1,5-a]pyrimidine-2-carboxamide], the IC50 turned out to be 8.77 nM on Human PDE4A3, 23.4 nM on Human PDE4C1, 16.1 nM at Human PDE4B1 and 1080 nM at human PDE4D3.

On to `O=C(Nc1ncccn1)c1nn2cccnc2c1-c1ccc(Cl)cc1` [Example 8, 3-(4-Chlorophenyl)-N-(pyrimidin-2-yl)pyrazolo[1,5-a]pyrimidine-2-carboxamide], for which the IC50 on Human PDE4A3 was 190 nM; at Human PDE4C1 it was 965 nM; on Human PDE4B1 it was 1090 nM; at human PDE4D3, over 25200 nM.

Turning to `O=C(NC1CC1)c1nn2cccnc2c1-c1cncc(Cl)c1` [Example 29, 3-(5-chloropyridin-3-yl)-N-cyclopropylpyrazolo[1,5-a]pyrimidine-2-carboxamide], the IC50 worked out at 132 nM at Human PDE4B1 and 3010 nM on human PDE4D3.

For the compound `O=C(Nc1nn2cccnc2c1-c1ccc(Cl)c(F)c1)c1ccccc1` [Example 30, N-[3-(4-chloro-3-fluorophenyl)pyrazolo[1,5-a]pyrimidin-2-yl]benzamide], the IC50 at Human PDE4B1 was determined as 2180 nM; at human PDE4D3, 27000 nM.

As to `O=C(NC1CC1)c1nn2cccnc2c1-c1ccc(Cl)c(Cl)c1` [Example 32, N-cyclopropyl-3-(3,4-dichlorophenyl)pyrazolo[1,5-a]pyrimidine-2-carboxamide, hydrochloride salt], the results for the IC50 on Human PDE4B1 and on human PDE4D3 were 9.98 nM and 720 nM, respectively.

Regarding `O=C(c1nn2cccnc2c1-c1ccnc(OC(F)F)c1)N1CCC1` [Example 37, azetidin-1-yl{3-[2-(difluoromethoxy)pyridin-4-yl]pyrazolo[1,5-a]pyrimidin-2-yl}methanone], the values for the IC50 at Human PDE4B1 and on human PDE4D3 were 31.5 nM and 691 nM, respectively.

As for `O=C(NC1CC1)c1nn2cccnc2c1-c1ccnc(OC(F)F)c1` [Example 38, N-cyclopropyl-3-[2-(difluoromethoxy)pyridin-4-yl]pyrazolo[1,5-a]pyrimidine-2-carboxamide, formate salt], the IC50 turned out to be 51.1 nM at Human PDE4B1 and 706 nM on human PDE4D3.

Consider `O=C(NC1CC1(F)F)c1nn2cccnc2c1-c1ccc(Cl)cc1` (stereo not shown) [Example 40, 3-(4-chlorophenyl)-N-(2,2-difluorocyclopropyl)pyrazolo[1,5-a]pyrimidine-2-carboxamide], for which the IC50 on Human PDE4B1 came to 68 nM; at human PDE4D3, 2360 nM.

For the compound `O=C(c1nn2cccnc2c1-c1cc(F)c(Cl)c(F)c1)N1CCC1` [Example 41, azetidin-1-yl[3-(4-chloro-3,5-difluorophenyl)pyrazolo[1,5-a]pyrimidin-2-yl]methanone], the IC50 is 5.32 nM at Human PDE4B1 and 350 nM at human PDE4D3.

For the compound `O=C(c1nn2cccnc2c1-c1cc(Cl)ccc1F)N1CCC1` [Example 74, azetidin-1-yl[3-(5-chloro-2-fluorophenyl)pyrazolo[1,5-a]pyrimidin-2-yl]methanone], the IC50 at Human PDE4B1 is 45.8 nM; at human PDE4D3, 5990 nM.

For the compound `N#Cc1ccc(-c2c(C(=O)NC3CC3)nn3cccnc23)c(F)c1` [Example 76, 3-(4-cyano-2-fluorophenyl)-N-cyclopropylpyrazolo[1,5-a]pyrimidine-2-carboxamide], the IC50 at Human PDE4B1 was 443 nM; at human PDE4D3, over 30000 nM.
